Test results taken from US9504754B2, “Curcuminoid complexes with enhanced stability, solubility and/or bioavailability” (South Dakota Board of Regents, priority 2013, dated 2016).

What was measured:
[1] = without any solubility enhancement techniques; cited from earlier work
[2] = Aqueous solubility of curcumin at different pH (FIG. 6A/6B); type: physicochemical

COc1cc(/C=C/C(=O)CC(=O)/C=C/c2ccc(O)c(OC)c2)ccc1O [free curcumin, (1E,6E)-1,7-bis(4-hydroxy-3-methoxyphenyl)-1,6-heptadiene-3,5-dione]
solubility in water [1]: less than 1 μg/ml | aqueous solubility of curcumin (colour of solution) ([2]; pH 1.2): absence of soluble curcumin | aqueous solubility of curcumin (colour of solution) ([2]; pH 4.5): absence of soluble curcumin | aqueous solubility of curcumin (colour of solution) ([2]; pH 7.0): absence of soluble curcumin | aqueous solubility of curcumin (colour of solution) ([2]; pH 7.4): absence of soluble curcumin
